Publication PMC4728128, “Two-subunit DNA escort mechanism and inactive subunit bypass in an ultra-fast ring ATPase” (eLife, 2015)

Columns and labels:
[1] = biological target: T1, SpoIIIE (Bacillus subtilis, UniProt P21458); test: optical tweezers rupture force of SpoIIIE-DNA tether (indirect sign of nucleotide binding); conditions: 1 mM ADP, no ATP; dsDNA
T1 construct: N-terminal biotin tag (PinPoint Xa-1) fused to SpoIIIE from plasmid pJB103 (Bath et al. 2000); recombinant, purified; homo-hexamer
T1 sequence (P21458 175-787): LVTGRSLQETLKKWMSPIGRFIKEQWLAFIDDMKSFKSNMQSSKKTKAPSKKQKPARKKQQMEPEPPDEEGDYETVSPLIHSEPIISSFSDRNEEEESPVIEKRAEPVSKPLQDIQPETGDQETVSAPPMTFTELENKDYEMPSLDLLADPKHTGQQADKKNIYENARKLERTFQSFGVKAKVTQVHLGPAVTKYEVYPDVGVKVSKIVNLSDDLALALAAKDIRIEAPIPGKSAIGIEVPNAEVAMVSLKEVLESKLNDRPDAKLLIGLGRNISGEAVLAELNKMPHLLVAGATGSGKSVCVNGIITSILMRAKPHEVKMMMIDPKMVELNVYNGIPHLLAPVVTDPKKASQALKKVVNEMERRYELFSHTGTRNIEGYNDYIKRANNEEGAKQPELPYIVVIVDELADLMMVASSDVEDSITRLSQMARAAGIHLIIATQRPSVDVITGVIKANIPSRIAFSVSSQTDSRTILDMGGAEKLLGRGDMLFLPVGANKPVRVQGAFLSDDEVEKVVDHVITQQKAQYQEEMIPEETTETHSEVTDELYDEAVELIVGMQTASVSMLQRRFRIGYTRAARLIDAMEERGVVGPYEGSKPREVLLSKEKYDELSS

[2] = biological target: T1, SpoIIIE; test: single-molecule optical tweezers DNA translocation; type: biochemical; conditions: dsDNA, 50 mM Tris-HCl pH 7.5, 10 mM MgCl2

Km [2] [µM]	Compound	optical tweezers rupture force of SpoIIIE-DNA tether (indirect sign of nucleotid) [1]
–	Nc1ncnc2c1ncn2[C@@H]1O[C@H](COP(=O)(O)OP(=O)(O)O)[C@@H](O)[C@H]1O [ADP]	In buffers containing only ADP or ATPγS, SpoIIIE could bind to DNA
505 ± 50	Nc1ncnc2c1ncn2[C@@H]1O[C@H](COP(=O)(O)OP(=O)(O)OP(=O)(O)O)[C@@H](O)[C@H]1O [ATP]	–
